Test results as given in PubChem BioAssay (NCI).
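Briefly, cells in 96-well plates were exposed to five compound concentrations for 48 h, and endpoints were estimated by linear interpolation. GI50: concentration for 50% inhibition of growth. TGI is the concentration that stops growth completely.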

Experiments:
Test in all cases: inhibition of tumour cell growth, NCI panel, 48 h
786-0 renal = test system: 786-0 renal
A498 renal = test system: A498 renal
A549 NSCLC = test system: A549 NSCLC
ACHN renal = test system: ACHN renal
BT-549 breast = test system: BT-549 breast
CAKI-1 renal = test system: CAKI-1 renal
CCRF-CEM leukemia = test system: CCRF-CEM leukemia
COLO 205 colon = test system: COLO 205 colon
DU-145 prostate = test system: DU-145 prostate
EKVX NSCLC = test system: EKVX NSCLC
HCC-2998 colon = test system: HCC-2998 colon
HCT-116 colon = test system: HCT-116 colon
HCT-15 colon = test system: HCT-15 colon
HL-60(TB) leukemia = test system: HL-60(TB) leukemia
HOP-62 NSCLC = test system: HOP-62 NSCLC
HOP-92 NSCLC = test system: HOP-92 NSCLC
HS 578T breast = test system: HS 578T breast
HT29 colon = test system: HT29 colon
IGROV1 ovarian = test system: IGROV1 ovarian
K-562 leukemia = test system: K-562 leukemia
KM12 colon = test system: KM12 colon
LOX IMVI melanoma = test system: LOX IMVI melanoma
M14 melanoma = test system: M14 melanoma
MALME-3M melanoma = test system: MALME-3M melanoma
MCF7 breast = test system: MCF7 breast
MDA-MB-231 breast = test system: MDA-MB-231 breast
MDA-MB-435 = test system: MDA-MB-435
MOLT-4 leukemia = test system: MOLT-4 leukemia
NCI-H226 lung = test system: NCI-H226 lung
NCI-H23 lung = test system: NCI-H23 lung
NCI-H460 lung = test system: NCI-H460 lung
NCI-H522 lung = test system: NCI-H522 lung
NCI/ADR-RES ovarian = test system: NCI/ADR-RES ovarian
OVCAR-3 ovarian = test system: OVCAR-3 ovarian
OVCAR-4 ovarian = test system: OVCAR-4 ovarian
OVCAR-5 ovarian = test system: OVCAR-5 ovarian
OVCAR-8 ovarian = test system: OVCAR-8 ovarian
PC-3 prostate = test system: PC-3 prostate
RXF 393 renal = test system: RXF 393 renal
SF-268 CNS = test system: SF-268 CNS
SF-295 CNS = test system: SF-295 CNS
SF-539 CNS = test system: SF-539 CNS
SK-MEL-2 melanoma = test system: SK-MEL-2 melanoma
SK-MEL-28 melanoma = test system: SK-MEL-28 melanoma
SK-MEL-5 melanoma = test system: SK-MEL-5 melanoma
SK-OV-3 ovarian = test system: SK-OV-3 ovarian
SN12C renal = test system: SN12C renal
SNB-19 CNS = test system: SNB-19 CNS
SNB-75 CNS = test system: SNB-75 CNS
SR leukemia = test system: SR leukemia
SW-620 colon = test system: SW-620 colon
T-47D breast = test system: T-47D breast
TK-10 renal = test system: TK-10 renal
U251 CNS = test system: U251 CNS
UACC-257 melanoma = test system: UACC-257 melanoma
UACC-62 melanoma = test system: UACC-62 melanoma
UO-31 renal = test system: UO-31 renal

SMILES: COc1ccc(C(=O)c2cc3c(N)c(C(=O)Nc4ccc(C)cc4)sc3nc2C)cc1
- GI50 (786-0 renal): 4.48 µM
- TGI (786-0 renal): 19.1 µM
- GI50 (A498 renal): 1.5 µM
- TGI (A498 renal): 9.59 µM
- GI50 (A549 NSCLC): 3.96 µM
- TGI (A549 NSCLC): > 100 µM
- GI50 (ACHN renal): 5.28 µM
- TGI (ACHN renal): 29.2 µM
- GI50 (BT-549 breast): 4.83 µM
- TGI (BT-549 breast): 41.8 µM
- GI50 (CAKI-1 renal): 2.35 µM
- TGI (CAKI-1 renal): 20.4 µM
- GI50 (CCRF-CEM leukemia): 3.76 µM
- TGI (CCRF-CEM leukemia): > 100 µM
- GI50 (COLO 205 colon): 3.47 µM
- TGI (COLO 205 colon): > 100 µM
- GI50 (DU-145 prostate): 3.63 µM
- TGI (DU-145 prostate): 27.4 µM
- GI50 (EKVX NSCLC): 5.59 µM
- TGI (EKVX NSCLC): > 100 µM
- GI50 (HCC-2998 colon): 4.01 µM
- TGI (HCC-2998 colon): > 100 µM
- GI50 (HCT-116 colon): 3.19 µM
- TGI (HCT-116 colon): 22.2 µM
- GI50 (HCT-15 colon): 1.27 µM
- TGI (HCT-15 colon): > 100 µM
- GI50 (HL-60(TB) leukemia): 2.78 µM
- TGI (HL-60(TB) leukemia): 10.3 µM
- GI50 (HOP-62 NSCLC): 4.43 µM
- TGI (HOP-62 NSCLC): 31.5 µM
- GI50 (HOP-92 NSCLC): 2.15 µM
- TGI (HOP-92 NSCLC): 21.9 µM
- GI50 (HS 578T breast): 2.29 µM
- TGI (HS 578T breast): 17.9 µM
- GI50 (HT29 colon): 2.74 µM
- TGI (HT29 colon): 15.2 µM
- GI50 (IGROV1 ovarian): 6.25 µM
- TGI (IGROV1 ovarian): 38.2 µM
- GI50 (K-562 leukemia): 1.28 µM
- TGI (K-562 leukemia): > 100 µM
- GI50 (KM12 colon): 2.44 µM
- TGI (KM12 colon): > 100 µM
- GI50 (LOX IMVI melanoma): 4.94 µM
- TGI (LOX IMVI melanoma): > 100 µM
- GI50 (M14 melanoma): 1.99 µM
- TGI (M14 melanoma): 62.9 µM
- GI50 (MALME-3M melanoma): 4.46 µM
- TGI (MALME-3M melanoma): 39.3 µM
- GI50 (MCF7 breast): 1.43 µM
- TGI (MCF7 breast): > 100 µM
- GI50 (MDA-MB-231 breast): 2.7 µM
- TGI (MDA-MB-231 breast): 13.2 µM
- GI50 (MDA-MB-435): 0.275 µM
- TGI (MDA-MB-435): 1.35 µM
- GI50 (MOLT-4 leukemia): 3.92 µM
- TGI (MOLT-4 leukemia): > 100 µM
- GI50 (NCI-H226 lung): 4.22 µM
- TGI (NCI-H226 lung): 30.8 µM
- GI50 (NCI-H23 lung): 6.24 µM
- TGI (NCI-H23 lung): 44 µM
- GI50 (NCI-H460 lung): 2.99 µM
- TGI (NCI-H460 lung): 14.2 µM
- GI50 (NCI-H522 lung): 2.06 µM
- TGI (NCI-H522 lung): 11.2 µM
- GI50 (NCI/ADR-RES ovarian): 2.55 µM
- TGI (NCI/ADR-RES ovarian): 15.4 µM
- GI50 (OVCAR-3 ovarian): 2.25 µM
- TGI (OVCAR-3 ovarian): 7.18 µM
- GI50 (OVCAR-4 ovarian): 5.55 µM
- TGI (OVCAR-4 ovarian): > 100 µM
- GI50 (OVCAR-5 ovarian): 7.13 µM
- TGI (OVCAR-5 ovarian): > 100 µM
- GI50 (OVCAR-8 ovarian): 5.25 µM
- TGI (OVCAR-8 ovarian): > 100 µM
- GI50 (PC-3 prostate): 4.2 µM
- TGI (PC-3 prostate): > 100 µM
- GI50 (RXF 393 renal): 2.48 µM
- TGI (RXF 393 renal): 9.38 µM
- GI50 (SF-268 CNS): 5.66 µM
- TGI (SF-268 CNS): 48.7 µM
- GI50 (SF-295 CNS): 2.51 µM
- TGI (SF-295 CNS): 15 µM
- GI50 (SF-539 CNS): 2.5 µM
- TGI (SF-539 CNS): 9.38 µM
- GI50 (SK-MEL-2 melanoma): 4.04 µM
- TGI (SK-MEL-2 melanoma): 34.7 µM
- GI50 (SK-MEL-28 melanoma): 13.6 µM
- TGI (SK-MEL-28 melanoma): > 100 µM
- GI50 (SK-MEL-5 melanoma): 3.14 µM
- TGI (SK-MEL-5 melanoma): 11.5 µM
- GI50 (SK-OV-3 ovarian): 5.59 µM
- TGI (SK-OV-3 ovarian): 33.1 µM
- GI50 (SN12C renal): 6.93 µM
- TGI (SN12C renal): > 100 µM
- GI50 (SNB-19 CNS): 4.22 µM
- TGI (SNB-19 CNS): 30.9 µM
- GI50 (SNB-75 CNS): 0.571 µM
- TGI (SNB-75 CNS): 5.99 µM
- GI50 (SR leukemia): 0.525 µM
- TGI (SR leukemia): > 100 µM
- GI50 (SW-620 colon): 3.61 µM
- TGI (SW-620 colon): > 100 µM
- GI50 (T-47D breast): 4.78 µM
- TGI (T-47D breast): 91.7 µM
- GI50 (TK-10 renal): 6.81 µM
- TGI (TK-10 renal): 25.2 µM
- GI50 (U251 CNS): 3.6 µM
- TGI (U251 CNS): 28.8 µM
- GI50 (UACC-257 melanoma): 20.4 µM
- TGI (UACC-257 melanoma): > 100 µM
- GI50 (UACC-62 melanoma): 12.2 µM
- TGI (UACC-62 melanoma): > 100 µM
- GI50 (UO-31 renal): 3.11 µM
- TGI (UO-31 renal): 27.3 µM
